Read-outs that look alike come from different tables or passages of the source.
Biological target: T1, recombinant human GluN1/GluN2A receptor (Homo sapiens, UniProt Q05586+Q12879)
T1 construct: expressed in transfected cells; host or cells: HEK293, tetracycline-inducible expression
Assay: Whole-cell patch clamp of mammalian cells (Syncropatch 384i), NMDA modulation
Assay type: cell-based
Method in brief: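 Modulation read as fold rise in peak current, (Icomp/Icontrol)−1, from 8 concentrations with ≥2 wells each, four-parameter fit. Compound pre-incubated 120 s then co-applied with 1 μM glutamate plus 100 μM glycine; tetracycline-inducible HEK293 GluN1/GluN2A cells clamped at −80 mV.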

[1] = Table E-2, HEK293 cells, human GluN1/GluN2A, glutamate 1 μM / glycine 100 μM, -80 mV, peak amplitude increase
[2] = Table E-2, HEK293 cells, human GluN1/GluN2A, glutamate 1 μM / glycine 100 μM, -80 mV, peak amplitude increase, read-out: EC50
[3] = Table C-2, HEK293 cells, human GluN1/GluN2A, glutamate 1 μM / glycine 100 μM, -80 mV, peak amplitude increase
[4] = Table C-2, HEK293 cells, human GluN1/GluN2A, glutamate 1 μM / glycine 100 μM, -80 mV, peak amplitude increase, read-out: EC50
[5] = Table B-2, HEK293 cells, human GluN1/GluN2A, glutamate 1 μM / glycine 100 μM, -80 mV, peak amplitude increase
[6] = Table B-2, HEK293 cells, human GluN1/GluN2A, glutamate 1 μM / glycine 100 μM, -80 mV, peak amplitude increase, read-out: EC50
[7] = Table A-2, HEK293 cells, human GluN1/GluN2A, glutamate 1 μM / glycine 100 μM, -80 mV, peak amplitude increase, read-out: EC50
[8] = Table A-2, HEK293 cells, human GluN1/GluN2A, glutamate 1 μM / glycine 100 μM, -80 mV, peak amplitude increase

T1 sequence (Q12879 23-1464, other chains not shown): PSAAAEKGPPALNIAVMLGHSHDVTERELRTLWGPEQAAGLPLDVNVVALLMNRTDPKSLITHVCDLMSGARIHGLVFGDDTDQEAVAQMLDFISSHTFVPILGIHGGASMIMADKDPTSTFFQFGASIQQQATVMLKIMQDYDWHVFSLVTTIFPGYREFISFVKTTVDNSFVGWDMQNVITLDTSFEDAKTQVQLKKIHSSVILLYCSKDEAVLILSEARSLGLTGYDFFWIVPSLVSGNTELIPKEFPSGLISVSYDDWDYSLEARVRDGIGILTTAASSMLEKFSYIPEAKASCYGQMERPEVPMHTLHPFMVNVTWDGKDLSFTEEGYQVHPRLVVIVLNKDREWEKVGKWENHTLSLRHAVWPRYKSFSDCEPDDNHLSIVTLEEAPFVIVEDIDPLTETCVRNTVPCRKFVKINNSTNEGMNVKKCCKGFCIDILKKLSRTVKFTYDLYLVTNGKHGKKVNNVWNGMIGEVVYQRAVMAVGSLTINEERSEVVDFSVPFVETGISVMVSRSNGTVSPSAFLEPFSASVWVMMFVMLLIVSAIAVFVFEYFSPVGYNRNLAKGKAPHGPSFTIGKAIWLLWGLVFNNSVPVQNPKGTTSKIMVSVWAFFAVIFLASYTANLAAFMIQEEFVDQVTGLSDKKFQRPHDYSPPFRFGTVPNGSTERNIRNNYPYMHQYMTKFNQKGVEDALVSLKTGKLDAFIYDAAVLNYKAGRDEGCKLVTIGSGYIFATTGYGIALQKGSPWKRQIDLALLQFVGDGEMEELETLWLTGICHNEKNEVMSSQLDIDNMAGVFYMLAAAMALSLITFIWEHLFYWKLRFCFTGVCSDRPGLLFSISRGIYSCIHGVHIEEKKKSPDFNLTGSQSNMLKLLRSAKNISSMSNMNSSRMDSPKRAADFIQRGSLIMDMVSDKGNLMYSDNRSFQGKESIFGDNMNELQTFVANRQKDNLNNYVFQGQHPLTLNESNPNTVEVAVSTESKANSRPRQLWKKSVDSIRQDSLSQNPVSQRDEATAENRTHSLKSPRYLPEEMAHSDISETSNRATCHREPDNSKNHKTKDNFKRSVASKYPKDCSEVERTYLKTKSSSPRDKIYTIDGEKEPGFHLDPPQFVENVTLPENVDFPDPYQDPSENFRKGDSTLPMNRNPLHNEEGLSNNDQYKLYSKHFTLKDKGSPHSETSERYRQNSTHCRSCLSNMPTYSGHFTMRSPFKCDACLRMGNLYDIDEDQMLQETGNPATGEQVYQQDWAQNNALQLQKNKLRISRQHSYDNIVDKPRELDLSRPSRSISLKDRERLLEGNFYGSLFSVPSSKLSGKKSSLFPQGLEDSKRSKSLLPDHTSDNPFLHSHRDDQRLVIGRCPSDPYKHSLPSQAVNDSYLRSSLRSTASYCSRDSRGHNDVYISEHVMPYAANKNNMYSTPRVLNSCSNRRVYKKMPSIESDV

## CC[C@]1(O)CC[C@@]2(C)C(=CC[C@H]3[C@@H]4CCC[C@H]([C@H](C)CC[C@](C)(O)C(F)(F)F)[C@@]4(C)CC[C@@H]32)C1 [Compound H-9, (2S,4aR,4bS,6aR,7R,10aS,10bS)-2-ethyl-4a,6a-dimethyl-7-((2R,5S)-6,6,6-trifluoro-5-hydroxy-5-methylhexan-2-yl)-1,2,3,4,4a,4b,5,6,6a,7,8,9,10,10a,10b,11-hexadecahydrochrysen-2-ol]
Table H-2, HEK293 cells, human GluN1/GluN2A, glutamate 1 μM / glycine 100 μM, -80 mV, peak amplitude increase, read-out: EC50
  EC50: 100 to 500 nM

## CC[C@]1(O)CC[C@]2(C)C3=CC[C@]4(C)[C@@H]([C@H](C)CC[C@@H](O)C(C)C)CC[C@H]4[C@@H]3CC[C@H]2C1 [Compound E-4, (3S,5S,8S,10S,13R,14S,17R)-3-ethyl-17-((2R,5R)-5-hydroxy-6-methylheptan-2-yl)-10,13-dimethyl-2,3,4,5,6,7,8,10,12,13,14,15,16,17-tetradecahydro-1H-cyclopenta[a]phenanthren-3-ol]
[1]
  Emax: > 200%
[2]
  EC50: 1 to 100 nM

## CC[C@]1(O)CC[C@@]2(C)C(=CC[C@H]3[C@@H]4CC[C@H]([C@H](C)CC[C@@H](O)C(C)(C)C#N)[C@@]4(C)CC[C@@H]32)C1 [Compound C-12]
  EC50: 1 to 100 nM
[3]
  Emax: > 200%

## CC[C@H](C#N)[C@@H](O)CC[C@@H](C)[C@H]1CC[C@H]2[C@@H]3CC[C@H]4C[C@](O)(CC)CC[C@]4(C)[C@H]3CC[C@]12C [Compound C-6, (2R,3S,6R)-2-ethyl-6-((3S,5S,8R,9S,10S,13R,14S,17R)-3-ethyl-3-hydroxy-10,13-dimethylhexadecahydro-1H-cyclopenta[a]phenanthren-17-yl)-3-hydroxyheptanenitrile]
[3]
  Emax: 100 to 200%
[4]
  EC50: 100 to 500 nM

## CC[C@]1(O)CC[C@@]2(C)[C@@H](CC[C@H]3[C@@H]4[C@H]5C[C@H]5[C@H]([C@H](C)CC[C@@](C)(O)C(F)(F)F)[C@@]4(C)CC[C@@H]32)C1 [Compound B-7, (2S,4aS,4bS,6aR,7S,7aR,8aS,8bS,8cR,10aS)-2-ethyl-4a, 6a-dimethyl-7-((2R,5R)-6,6,6-trifluoro-5-hydroxy-5-methylhexan-2-yl)octadecahydrocyclopropa[4,5]cyclopenta[1,2-a]phenanthren-2-ol]
[5]
  Emax: 100 to 200%
[6]
  EC50: 100 to 500 nM

## CC[C@]1(O)CC[C@@]2(C)[C@@H](CC[C@@H]3[C@@H]2CC[C@]2(C)[C@@H]([C@@H](CC[C@@](C)(O)C(F)(F)F)OC)CC[C@@H]32)C1 [Compound A-23, (3S,5S,8R,9S,10S,13S,14S,17S)-3-ethyl-10,13-dimethyl-17-((1R,4R)-5,5,5-trifluoro-4-hydroxy-1-methoxy-4-methylpentyl) hexadecahydro-1H-cyclopenta[a]phenanthren-3-ol]
[7]
  EC50: 500 to 1000 nM

## CC[C@]12CC[C@H]3[C@@H](CC=C4C[C@@](C)(O)CC[C@@]43C)[C@@H]1CC[C@@H]2[C@H](C)CC[C@H](O)C(C)C [Compound F-3, (3S,8S,9S,10R,13R,14S,17R)-13-ethyl-17-((2R,5S)-5-hydroxy-6-methylheptan-2-yl)-3,10-dimethyl-2,3,4,7,8,9,10,11,12,13,14,15,16,17-tetradecahydro-1H-cyclopenta[a]phenanthren-3-ol]
Table F-2, HEK293 cells, human GluN1/GluN2A, glutamate 1 μM / glycine 100 μM, -80 mV, peak amplitude increase, read-out: EC50
  EC50: 100 to 500 nM

## CC[C@]1(O)CC[C@@]2(C)[C@@H](CC[C@H]3[C@@H]4[C@H](C5CC5)C[C@H]([C@H](C)CCCC(C)(C)O)[C@@]4(C)CC[C@@H]32)C1 [Compound B-17, (3S,5S,8R,9S,10S,13R,14S,15S,17R)-15-cyclopropyl-3-ethyl-17-((R)-6-hydroxy-6-methylheptan-2-yl)-10,13-dimethylhexadecahydro-1H-cyclopenta[a]phenanthren-3-ol]
[5]
  Emax: 100 to 200%
[6]
  EC50: 100 to 500 nM

## CC[C@]1(O)CC[C@@]2(C)C(=CC[C@H]3[C@@H]4CC[C@H]([C@H](C)CC[C@H](O)C5(C#N)CCC5)[C@@]4(C)CC[C@@H]32)C1 [Compound C-18, 1-((1S,4R)-4-((3S,8S,9S,10R,13R,14S,17R)-3-ethyl-3-hydroxy-10,13-dimethyl-2,3,4,7,8,9,10,11,12,13,14,15,16,17-tetradecahydro-1H-cyclopenta[a]phenanthren-17-yl)-1-hydroxypentyl)cyclobutane-1-carbonitrile]
[4]
  EC50: 100 to 500 nM

## CC[C@]1(O)CCC[C@@]2(C)[C@@H](CC[C@@H]3[C@@H]2CC[C@]2(C)[C@@H]([C@H](C)CC[C@@](C)(O)C(F)(F)F)CC[C@@H]32)C1 [Compound D-5, (1R,3aS,3bR,5aS,7S,10aS,10bS,12aR)-7-ethyl-10a,12a-dimethyl-1-((2R,5R)-6,6,6-trifluoro-5-hydroxy-5-methylhexan-2-yl)octadecahydrocyclohepta[a]cyclopenta[f]naphthalen-7-ol]
Table D-2, HEK293 cells, human GluN1/GluN2A, glutamate 1 μM / glycine 100 μM, -80 mV, peak amplitude increase
  Emax: < 100%
Table D-2, HEK293 cells, human GluN1/GluN2A, glutamate 1 μM / glycine 100 μM, -80 mV, peak amplitude increase, read-out: EC50
  EC50: 100 to 500 nM

## CC[C@]1(O)CC[C@@]2(C)C(=CC[C@H]3[C@@H]4CC[C@H]([C@@H](CC[C@@](C)(O)C(F)(F)F)OC)[C@@]4(C)CC[C@@H]32)C1 [Compound A-13, (3S,8S,9S,10R,13S,14S,17S)-3-ethyl-10,13-dimethyl-17-((1R,4R)-5,5,5-trifluoro-4-hydroxy-1-methoxy-4-methylpentyl)-2,3,4,7,8,9,10,11,12,13,14,15,16,17-tetradecahydro-1H-cyclopenta[a]phenanthren-3-ol]
[8]
  Emax: > 200%
[7]
  EC50: 500 to 1000 nM

## CC[C@H](CC[C@](C)(O)C(F)(F)F)[C@H]1CC[C@H]2[C@@H]3CC[C@H]4C[C@](O)(CC)CC[C@]4(C)[C@H]3CC[C@]12C [Compound A-3, (3S,5S,8R,9S,10S,13R,14S,17R)-3-ethyl-10,13-dimethyl-17-((3R,6S)-7,7,7-trifluoro-6-hydroxy-6-methylheptan-3-yl)hexadecahydro-1H-cyclopenta[a]phenanthren-3-ol]
[8]
  Emax: > 200%
[7]
  EC50: 1 to 100 nM

## C[C@H](CC[C@H](O)C1(C#N)CCC1)[C@H]1CC[C@H]2[C@@H]3CC[C@H]4C[C@@](C)(O)CC[C@]4(C)C3=CC[C@]12C [Compound C-30, 1-((1S,4R)-1-hydroxy-4-((3S,5S,8S,10S,13R,14S,17R)-3-hydroxy-3,10,13-trimethyl-2,3,4,5,6,7,8,10,12,13,14,15,16,17-tetradecahydro-1H-cyclopenta[a]phenanthren-17-yl)pentyl)cyclobutane-1-carbonitrile]
[4]
  EC50: 100 to 500 nM
[2]
  EC50: 100 to 500 nM

## CC(C)[C@H](O)CC[C@@H](C)[C@H]1CC[C@H]2[C@@H]3CC[C@H]4C[C@@](C)(O)CC[C@]4(C)C3=CC[C@]12C [Compound E-11, (3S,5S,8S,10S,13R,14S,17R)-17-((2R,5R)-5-hydroxy-6-methylheptan-2-yl)-3,10,13-trimethyl-2,3,4,5,6,7,8,10,12,13,14,15,16,17-tetradecahydro-1H-cyclopenta[a]phenanthren-3-ol]
[1]
  Emax: 100 to 200%
[2]
  EC50: 1 to 100 nM

## C[C@H](CC[C@@H](O)C1(C#N)CC1)[C@H]1CC[C@H]2[C@@H]3CC=C4C[C@@](C)(O)CC[C@]4(C)[C@H]3CC[C@]12C [Compound C-23, 1-((1R,4R)-1-hydroxy-4-((3S,8S,9S,10R,13R,14S,17R)-3-hydroxy-3,10,13-trimethyl-2,3,4,7,8,9,10,11,12,13,14,15,16,17-tetradecahydro-1H-cyclopenta[a]phenanthren-17-yl)pentyl)cyclopropane-1-carbonitrile]
[4]
  EC50: 1 to 100 nM

## C[C@H](CC[C@@H](O)C1(C#N)CC1)[C@H]1CC[C@H]2[C@@H]3CC[C@H]4C[C@@](C)(O)CC[C@]4(C)C3=CC[C@]12C [Compound C-32, 1-((1R,4R)-1-hydroxy-4-((3S,5S,8S,10S,13R,14S,17R)-3-hydroxy-3,10,13-trimethyl-2,3,4,5,6,7,8,10,12,13,14,15,16,17-tetradecahydro-1H-cyclopenta[a]phenanthren-17-yl)pentyl)cyclopropane-1-carbonitrile]
[4]
  EC50: 1 to 100 nM
[2]
  EC50: 1 to 100 nM

## CC[C@]1(O)CC[C@@]2(C)C(=CC[C@H]3[C@@H]4CC[C@H]([C@H](C)CC[C@H](O)C(C)(C)C#N)[C@@]4(C)CC[C@@H]32)C1 [Compound C-13, (3S,6R)-6-((3S,8S,9S,10R,13R,14S,17R)-3-ethyl-3-hydroxy-10,13-dimethyl-2,3,4,7,8,9,10,11,12,13,14,15,16,17-tetradecahydro-1H-cyclopenta[a]phenanthren-17-yl)-3-hydroxy-2,2-dimethylheptanenitrile]
[3]
  Emax: 100 to 200%
[4]
  EC50: 1 to 100 nM

Reference: patent US20240368214A1, “POSITIVE NMDA-MODULATING COMPOUNDS AND METHODS OF USE THEREOF” (SAGE THERAPEUTICS, INC., priority 2021, published 2024)
